Assays:
[1] = test system: cultured cells of Taxus baccata LINN; assay: Taxane-type diterpene yield and cell yield, shake culture of Taxus baccata cells with a jasmonic acid (or jasmone) added; type: cell-based; conditions: for yield of baccatin III / yield of cephalomannine / yield of taxol: cell + medium; for taxol inducing activity: see Comparative Example No. 24
[2] = test system: cultured cells of Taxus baccata LINN; assay: Growth rate and taxane yield, 21-day shake culture of Taxus baccata cells with heavy metal compound, amine, antiethylene agent or Ethrel added; type: cell-based
Procedure: (§1) One gram (fresh weight) of the callus was inoculated to an Erlenmeyer flask containing 20 ml of liquid Woody Plant Medium to which the above-mentioned component was added to give the same concentration and shake culture was carried out with a rotary shaker (amplification of 25 mm, 100 rpm) and the callus was subcultured in every 21 days to accelerate the growth rate thereof.
Then shake culture was carried out at 25° C. for 21 days.
(§2) After completing the culture, cultured cells of Taxus baccata LINN were harvested by filtration and lyophilized, then the dry weight was measured to obtain the growth rate thereof. Taxane-type diterpenes were extracted from the dried callus with methanol and the like, and they were determined by comparing with standard taxol, cephalomannine, and baccatin III using high performance liquid chromatography to measure the yields of the taxane-type diterpenes.
as §1
One gram (fresh weight) of the cultured cells thus obtained was inoculated to an Erlenmeyer flask containing 20 ml of liquid Woody Plant Medium to which the above-mentioned component had been added to give the same concentration, then spermidine was added to it as amine to give the final concentration of 10^−9M-1M. Then shake culture was carried out at 25° C. for 21 days.
as §2, with “cells” for “callus”, “diterpene.” for “diterpenes.”
as §1, with “component had been” for “component was”
One gram (fresh weight) of the cultured cells thus obtained was inoculated to an Erlenmeyer flask containing 20 ml of liquid Woody Plant Medium to which the above-mentioned component had been added to give the same concentration, and shake culture was carried out at 25° C. for 14 days.

[3] = 2×10^−6 M added 5 times at 4 days' intervals from day 0, total 10^−5 M
[4] = 10^−1 M added at start, 21 days
[5] = 10^−2 M added at start, 21 days
[6] = 10^−3 M added at start, 21 days
[7] = 10^−4 M added at start, 21 days
[8] = 10^−5 M added at start, 21 days
[9] = 10^−5 M added on 7th day, 14 more days
[10] = 10^−5 M added on 14th day, 7 more days
[11] = 10^−5 M added on 18th day, 3 more days
[12] = 10^−5 M at start + methyl jasmonate 10^−4 M on 14th day
[13] = 10^−5 M at start + methyl jasmonate 10^−4 M on 14th day, oxygen 10% in the gas phase
[14] = 10^−5 M at start, oxygen 10% in the gas phase
[15] = 10^−6 M added at start, 21 days
[16] = 10^−7 M added at start, 21 days
[17] = 10^−8 M added at start, 21 days
[18] = 10^−9 M added at start, 21 days
[19] = 1 M added on 14th day, 7 more days
[20] = 10^−1 M added on 14th day, 7 more days
[21] = 10^−2 M added on 14th day, 7 more days
[22] = 10^−3 M added on 14th day, 7 more days
[23] = 10^−4 M added on 14th day, 7 more days
[24] = 10^−6 M added on 14th day, 7 more days
[25] = 10^−7 M added on 14th day, 7 more days
[26] = 10^−8 M added on 14th day, 7 more days
[27] = 10^−9 M added on 14th day, 7 more days
[28] = Ethrel 10^−3 M added at the 14th day, no acetylsalicylic acid, oxygen 20%
[29] = Ethrel 10^−3 M added at the 14th day, no acetylsalicylic acid, oxygen 20%, cell + medium

CCC=CCC1=C(C)CCC1=O [Comparative Example 24]
cell yield ([1]; jasmone 0.1 μM): 12.2 g/L
yield of baccatin III ([1]; jasmone 0.1 μM): 0.3 mg/L
yield of cephalomannine ([1]; jasmone 0.1 μM): 1.2 mg/L
yield of taxol ([1]; jasmone 0.1 μM): 3.0 mg/L
cell yield ([1]; jasmone 1 μM): 12.1 g/L
yield of baccatin III ([1]; jasmone 1 μM): 0.4 mg/L
yield of cephalomannine ([1]; jasmone 1 μM): 1.0 mg/L
yield of taxol ([1]; jasmone 1 μM): 3.2 mg/L
cell yield ([1]; jasmone 10 μM): 11.3 g/L
yield of baccatin III ([1]; jasmone 10 μM): 0.3 mg/L
yield of cephalomannine ([1]; jasmone 10 μM): 0.8 mg/L
yield of taxol ([1]; jasmone 10 μM): 3.3 mg/L
cell yield ([1]; jasmone 100 μM): 11.3 g/L
yield of baccatin III ([1]; jasmone 100 μM): 0.3 mg/L
yield of cephalomannine ([1]; jasmone 100 μM): 0.6 mg/L
yield of taxol ([1]; jasmone 100 μM): 3.2 mg/L
cell yield ([1]; jasmone 1000 μM): 10.9 g/L
yield of baccatin III ([1]; jasmone 1000 μM): 0.2 mg/L
yield of cephalomannine ([1]; jasmone 1000 μM): 0.8 mg/L
yield of taxol ([1]; jasmone 1000 μM): 2.5 mg/L

methyl jasmone [reference compound]
taxol inducing activity [1]: low

CC/C=C\CC1=C(C)CCC1=O [jasmone, reference compound]
taxol inducing activity [1]: low

NCCCCNCCCN [spermidine]
growth rate ([2]; 1 M added at start, 21 days): 1.4 times
total yield of taxane ([2]; 1 M added at start, 21 days): 0.21 mg/L
yield of baccatin III ([2]; 1 M added at start, 21 days): 0.10 mg/L
yield of cephalomannine ([2]; 1 M added at start, 21 days): 0.03 mg/L
yield of taxol ([2]; 1 M added at start, 21 days): 0.08 mg/L
growth rate [2, 3]: 2.9 times
total yield of taxane [2, 3]: 27.74 mg/L
yield of baccatin III [2, 3]: 6.30 mg/L
yield of cephalomannine [2, 3]: 6.01 mg/L
yield of taxol [2, 3]: 15.43 mg/L
growth rate [2, 4]: 2.1 times
total yield of taxane [2, 4]: 3.35 mg/L
yield of baccatin III [2, 4]: 0.41 mg/L
yield of cephalomannine [2, 4]: 1.00 mg/L
yield of taxol [2, 4]: 1.94 mg/L
growth rate [2, 5]: 2.0 times
total yield of taxane [2, 5]: 7.13 mg/L
yield of baccatin III [2, 5]: 0.82 mg/L
yield of cephalomannine [2, 5]: 2.42 mg/L
yield of taxol [2, 5]: 3.89 mg/L
growth rate [2, 6]: 2.9 times
total yield of taxane [2, 6]: 17.31 mg/L
yield of baccatin III [2, 6]: 2.63 mg/L
yield of cephalomannine [2, 6]: 4.59 mg/L
yield of taxol [2, 6]: 10.09 mg/L
growth rate [2, 7]: 3.1 times
total yield of taxane [2, 7]: 22.23 mg/L
yield of baccatin III [2, 7]: 2.78 mg/L
yield of cephalomannine [2, 7]: 6.49 mg/L
yield of taxol [2, 7]: 12.96 mg/L
growth rate [2, 8]: 3.1 times
total yield of taxane [2, 8]: 33.17 mg/L
yield of baccatin III [2, 8]: 6.59 mg/L
yield of cephalomannine [2, 8]: 7.30 mg/L
yield of taxol [2, 8]: 19.28 mg/L
growth rate [2, 9]: 2.9 times
total yield of taxane [2, 9]: 27.45 mg/L
yield of baccatin III [2, 9]: 6.08 mg/L
yield of cephalomannine [2, 9]: 6.13 mg/L
yield of taxol [2, 9]: 15.24 mg/L
growth rate [2, 10]: 2.9 times
total yield of taxane [2, 10]: 20.98 mg/L
yield of baccatin III [2, 10]: 5.46 mg/L
yield of cephalomannine [2, 10]: 5.32 mg/L
yield of taxol [2, 10]: 10.20 mg/L
growth rate [2, 11]: 3.0 times
total yield of taxane [2, 11]: 11.48 mg/L
yield of baccatin III [2, 11]: 2.95 mg/L
yield of cephalomannine [2, 11]: 2.90 mg/L
yield of taxol [2, 11]: 5.63 mg/L
growth rate [2, 12]: 2.6 times
total yield of taxane [2, 12]: 50.25 mg/L
yield of baccatin III [2, 12]: 18.96 mg/L
yield of cephalomannine [2, 12]: 9.74 mg/L
yield of taxol [2, 12]: 21.55 mg/L
growth rate [2, 13]: 2.6 times
total yield of taxane [2, 13]: 57.89 mg/L
yield of baccatin III [2, 13]: 19.65 mg/L
yield of cephalomannine [2, 13]: 8.57 mg/L
yield of taxol [2, 13]: 29.67 mg/L
growth rate [2, 14]: 2.7 times
total yield of taxane [2, 14]: 40.29 mg/L
yield of baccatin III [2, 14]: 13.43 mg/L
yield of cephalomannine [2, 14]: 7.81 mg/L
yield of taxol [2, 14]: 19.05 mg/L
growth rate [2, 15]: 3.2 times
total yield of taxane [2, 15]: 23.16 mg/L
yield of baccatin III [2, 15]: 3.61 mg/L
yield of cephalomannine [2, 15]: 6.04 mg/L
yield of taxol [2, 15]: 13.51 mg/L
growth rate [2, 16]: 3.1 times
total yield of taxane [2, 16]: 18.89 mg/L
yield of baccatin III [2, 16]: 1.34 mg/L
yield of cephalomannine [2, 16]: 5.79 mg/L
yield of taxol [2, 16]: 11.76 mg/L
growth rate [2, 17]: 3.1 times
total yield of taxane [2, 17]: 4.39 mg/L
yield of baccatin III [2, 17]: 0.66 mg/L
yield of cephalomannine [2, 17]: 1.74 mg/L
yield of taxol [2, 17]: 1.99 mg/L
growth rate [2, 18]: 2.9 times
total yield of taxane [2, 18]: 1.21 mg/L
yield of baccatin III [2, 18]: 0.31 mg/L
yield of cephalomannine [2, 18]: 0.58 mg/L
yield of taxol [2, 18]: 0.32 mg/L

CCCOC(=O)c1cc(O)c(O)c(O)c1 [propyl gallate]
growth rate [2, 19]: 1.1 times
total yield of taxane [2, 19]: 0.01 mg/L
yield of baccatin III [2, 19]: 0.01 mg/L
yield of cephalomannine [2, 19]: 0 mg/L
yield of taxol [2, 19]: 0 mg/L
growth rate [2, 20]: 1.9 times
total yield of taxane [2, 20]: 1.38 mg/L
yield of baccatin III [2, 20]: 0.48 mg/L
yield of cephalomannine [2, 20]: 0.25 mg/L
yield of taxol [2, 20]: 0.65 mg/L
growth rate [2, 21]: 2.9 times
total yield of taxane [2, 21]: 7.03 mg/L
yield of baccatin III [2, 21]: 0.69 mg/L
yield of cephalomannine [2, 21]: 2.01 mg/L
yield of taxol [2, 21]: 4.33 mg/L
growth rate [2, 22]: 3.2 times
total yield of taxane [2, 22]: 12.10 mg/L
yield of baccatin III [2, 22]: 0.84 mg/L
yield of cephalomannine [2, 22]: 4.30 mg/L
yield of taxol [2, 22]: 6.96 mg/L
growth rate [2, 23]: 3.0 times
total yield of taxane [2, 23]: 12.27 mg/L
yield of baccatin III [2, 23]: 0.87 mg/L
yield of cephalomannine [2, 23]: 4.42 mg/L
yield of taxol [2, 23]: 6.98 mg/L
growth rate [2, 10]: 3.0 times
total yield of taxane [2, 10]: 16.13 mg/L
yield of baccatin III [2, 10]: 2.82 mg/L
yield of cephalomannine [2, 10]: 5.07 mg/L
yield of taxol [2, 10]: 8.24 mg/L
growth rate [2, 24]: 3.1 times
total yield of taxane [2, 24]: 13.95 mg/L
yield of baccatin III [2, 24]: 1.91 mg/L
yield of cephalomannine [2, 24]: 4.38 mg/L
yield of taxol [2, 24]: 7.66 mg/L
growth rate [2, 25]: 2.7 times
total yield of taxane [2, 25]: 2.79 mg/L
yield of baccatin III [2, 25]: 0.55 mg/L
yield of cephalomannine [2, 25]: 0.72 mg/L
yield of taxol [2, 25]: 1.52 mg/L
growth rate [2, 26]: 2.7 times
total yield of taxane [2, 26]: 1.74 mg/L
yield of baccatin III [2, 26]: 0.42 mg/L
yield of cephalomannine [2, 26]: 0.68 mg/L
yield of taxol [2, 26]: 0.74 mg/L
growth rate [2, 27]: 2.7 times
total yield of taxane [2, 27]: 1.37 mg/L
yield of baccatin III [2, 27]: 0.41 mg/L
yield of cephalomannine [2, 27]: 0.59 mg/L
yield of taxol [2, 27]: 0.37 mg/L

O=P(O)(O)CCCl [Reference Example 2]
growth rate [2, 28]: 2.7 times
total yield of taxane [2, 28]: 0.30 mg/L
yield of baccatin III [2, 29]: 0.05 mg/L
yield of cephalomannine [2, 29]: 0.16 mg/L
yield of taxol [2, 29]: 0.09 mg/L

C=C [ethylene]
production of the taxane-type diterpene by the tissues and the cells [2]: greatly inhibits

Reference: US6403343B2, “Method of producing a taxane-type diterpene and a method of obtaining cultured cells which produce the taxane-type dilterpene at a high rate” (Mitsui Chemicals, Inc., priority 1993, dated 2002)
